The record followed here is patent US20180207113A1, “VIVO INTRACELLULAR REPROGRAMMING COMPOSITION AND METHOD OF MAKING AND USING SAME” (priority 2017, published 2018).

One experiment has as its system mitophagy. The experiment can be described thus: Induction of mitophagy in vitro and in vivo. The note with it: in vitro and in vivo following oral consumption.
Experiment [1] relates to C. elegans. The experiment can be described thus: C. elegans lifespan. Type of experiment: in vivo. From the text: Urolithins extend lifespan and improve fitness in C. elegans.
The test system of experiment [2] is C. elegans. The experiment can be described thus: Activity and fitness during aging in C. elegans (mobility, pharyngeal pumping). It is filed as in vivo.
The test system of experiment [3] is C. elegans. The experiment can be described thus: Mitochondrial function with age in C. elegans. Type of experiment: in vivo.

With `O=c1oc2cc(O)ccc2c2ccc(O)cc12` [UA, urolithin A], the induction of mitophagy result with mitophagy was “induces mitophagy both in vitro and in vivo”. Also, in the experiment with C. elegans [1], the lifespan entry is listed as “extended lifespan”. For the same compound, in the experiment with C. elegans [1] (at 50 μM), the “mortality observed at advanced ages” value was “significantly delayed the mortality”. Also, the “dose-response effect on lifespan” value with C. elegans [1] (concentrations increased from 10 to 50 μM) is reported as “clear dose-response effect”. For the same compound, the “normal activity during aging, including mobility and pharyngeal pumping” value with C. elegans [2] is “prolonged normal activity during aging”. In the experiment with C. elegans [3], the “accumulation of dysfunctional mitochondria with age” value is recorded as “prevented the accumulation of dysfunctional mitochondria with age”. For the same compound, in the experiment on C. elegans [3] (during aging), the mitochondrial respiratory capacity entry is “maintaining mitochondrial respiratory capacity”.
As to `O=c1oc2c(O)c(O)cc3c(=O)oc4c(O)c(O)cc1c4c23` [EA], the effect on lifespan entry in the experiment with C. elegans [1] (at the same concentration (not given)) is on record as “no effect on lifespan”.
